Read-outs that look alike come from different tables or passages of the source.
Legend:
[1] = test system: PC-3 cells; experiment: Cell Proliferation Assay (Cell Titer Glo), PC-3 cell line; assay type: cell-based
Description: IV. Cell Proliferation Assay Protocol:
A2780, PC-3, or PC3MM cells were seeded at 1000 cells/well in 100 μL/well (10.000 cells/mL) growth media in 96-well plates. Cells were allowed to adhere to the bottom of plates for 3-5 hours in a 37° C. 5% CO2 incubator. Compounds were dissolved in DMSO and then transferred to the cell plates. The cells were incubated with the compounds for 3 days in a 37° C. 5% CO2 incubator. The growth medium containing the compounds was then removed from the cells and fresh medium was added, followed by 100 μL of Cell Titer Glo assay reagent (Promega). This mixture was shaken for 1 minute and then incubated without shaking for 10 minutes. Activity determinations for the compounds were made by detection on a Trilux Instrument.
V. Cell Proliferation Assay Protocol: PC-3 Cell Line
PC-3 cells were seeded at 1000 cells/well in 100 μL/well (10.000 cells/mL) along with growth media into black-walled, clear bottom 96-well plates. The cells were allowed to adhere to the bottom of the plate for 3-5 hours in a 37° C. 5% CO2 incubator.
Test compounds were diluted to 500× in DMSO. The DMSO solutions of six of the compounds were transferred to the cells in the 96 well round bottom plate, column 2, row B-F. A 1:3 serial dilution of each compound was carried out. The serial dilution comprised adding 20 μL of DMSO to the wells containing the compounds and doing a 1:3 dilution across the plate from columns 2-10. Column 11 contained only DMSO. The serial dilution was carried out using a BioMek 2000 protocol “CP Serial Dilution using 250 μL tips” or “Proliferation Compound” (if using 20 μL tips).
To a 96 deep well block, columns 2-11 rows B-F, was transferred 500 μL of growth medium. Using the FX protocol “HH_CellAssay—2 μL to 500 μL”, 2 μL of compound from each cell of the compound plate was transferred to the corresponding cell in the 96 deep well block containing 500 μL of growth medium. The instrument was programmed to dilute the compound in growth medium and then transfer 100 μL of that mixture to cell plates containing cells. The cell plates, to which test compounds had been added, were incubated for 3 days at 37° C. Following the incubation, the medium was removed and replaced with fresh medium. Cell Titer Glo (100 μL) was added to each well and the plate was shaken for 1 minute and then incubated without shaking for 10 minutes. The plates were then read using a Trilux instrument.

[2] = biological target: T1, PDK1 kinase (Homo sapiens, UniProt O15530); experiment: PDK1 Kinase Alpha Screen Assay; assay type: biochemical; conditions: read-out: PDK1 IC50
T1 sequence (O15530 1-556): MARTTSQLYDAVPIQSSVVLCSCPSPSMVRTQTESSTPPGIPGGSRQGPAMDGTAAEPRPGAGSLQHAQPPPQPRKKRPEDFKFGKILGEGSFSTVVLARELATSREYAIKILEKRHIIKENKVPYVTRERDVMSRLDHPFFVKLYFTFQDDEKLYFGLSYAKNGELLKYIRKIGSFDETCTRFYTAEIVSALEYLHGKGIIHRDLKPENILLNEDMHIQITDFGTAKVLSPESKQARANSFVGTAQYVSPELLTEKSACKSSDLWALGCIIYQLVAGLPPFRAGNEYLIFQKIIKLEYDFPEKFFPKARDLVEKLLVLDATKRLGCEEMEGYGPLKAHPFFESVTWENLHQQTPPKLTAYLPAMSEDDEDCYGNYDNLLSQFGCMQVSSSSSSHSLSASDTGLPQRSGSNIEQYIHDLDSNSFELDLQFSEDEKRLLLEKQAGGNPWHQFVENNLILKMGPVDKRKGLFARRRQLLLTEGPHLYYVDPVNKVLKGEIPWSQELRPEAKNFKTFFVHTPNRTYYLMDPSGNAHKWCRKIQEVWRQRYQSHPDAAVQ
Description: 1. PDK1 Kinase Alpha Screen Assay
Reagents/Concentrations: The PDK1-4 peptide substrate, biotin-[…]-NH2, was purchased from the Tufts University Core Facility. The final concentration of PDK1-4 peptide substrate was 50 nM The ATP substrate (Adenosine-5′-triphosphate) was purchased from Roche Diagnostics. The final concentration of ATP substrate was 10 uM. Phospho-(Ser/Thr) PKA substrate antibody was purchased from Cell Signaling Technology. The final concentration of antibody was 0.3 mg/ml. The Alpha Screen Protein A detection kit containing donor and acceptor beads was purchased from PerkinElmer Life Sciences. The final concentration of both donor and acceptor beads was 25 μg/ml. Alpha Screen was used for detection. The biotinylated-PDK1-4 peptide was phosphorylated by PDK1 kinase using the ATP substrate. The biotinylated-PDK1-4 peptide substrate was bound to the streptavidin coated donor bead. The antibody was bound to the protein A coated acceptor bead. The antibody bound to the phosphorylated form of the biotinylated PDK-1 peptide substrate, bringing the donor and acceptor beads into close proximity. Laser irradiation of the donor bead at 680 nm generated a flow of short-lived singlet oxygen molecules. When the donor and acceptor beads were in close proximity, the reactive oxygen generated by the irradiation of the donor beads initiated a luminescence/fluorescence cascade in the acceptor beads. This process led to a highly amplified signal with output in the 530-620 nm range. Assays were carried out in 50 mM Tris, pH=7.5, 10 mM MgCl2, 0.1% Bovine Serum Albumin, 0.01% Tween-20, 2 mM Dithiolthreitol, 2.5% Dimethyl Sulfoxide. Reactions were stopped by adding 50 mM Tris, pH=7.5, 90 mM EDTA, 0.1% Bovine Serum Albumin, 0.01% Tween-20.
Procedure: To 10 μl of PDK1-4 peptide, 0.5 μl of test compound in dimethyl sulfoxide is added. PDK1 kinase and ATP are mixed. 10 μl of the PDK1 kinase/ATP mix is added to start the reaction. The reaction is allowed to proceed for 3-18 hours. The reactions are stopped by adding 10 μl of the EDTA-containing stop buffer. Beads are mixed with antibody. 25 μl of the bead/antibody mix is added to the stopped reactions. Plates are incubated at room temperature overnight to allow for detection development before being read. The assay is run is a 384-well format. […]

[3] = Homo sapiens, PC-3, 72 h, PC-3 cells, 3 days incubation, read-out: CP EC50 PC3
[4] = Homo sapiens, PC-3, PC3 cells, read-out: CPEC50 PC3

EC50 [1, 3] [µM] | IC50 [2] [µM] | EC50 [1, 4] [µM] | Molecule | also measured
– | – | – | 8-(6-(2-(pyrrolidin-1- yl)ethylamino)pyridin-3-yl)-N-(4- (trifluoromethoxy)phenyl)quinazoin- 2-amine [Compound 394] | EC50 ([1]; Cell Proliferation Assay, PC3, read-out: CPEC50 PC3): < 5 µM; IC50 ([2]; PDK1 Kinase Alpha Screen Assay): < 5 µM
< 5 | < 5 | – | CCN1CCC(Oc2ccc3cnc(Nc4cc(OC)cc(OC)c4)nc3c2)CC1 [Compound 56, (3,5-Dimethoxy-phenyl)-[7-(1-ethyl-piperidin-4-yloxy)-quinazolin-2-yl]-amine] | –
< 5 | < 5 | – | CC(C)N1CCC(Oc2ccc3cnc(Nc4ccc(Cl)cc4)nc3c2)CC1 [Compound 57, (4-Chloro-phenyl)-[7-(1-isopropyl-piperidin-4-yloxy)-quinazolin-2-yl]-amine] | –
5 to 10 | < 5 | – | CC(C)N1CCC(Oc2ccc3cnc(Nc4ccc(F)cc4)nc3c2)CC1 [Compound 60, (4-Fluoro-phenyl)-[7-(1-isopropyl-piperidin-4-yloxy)-quinazolin-2-yl]-amine] | –
5 to 10 | < 5 | – | CC(C)N1CCC(Oc2ccc3cnc(Nc4ccc(N)c(Cl)c4)nc3c2)CC1 [Compound 62, 2-Chloro-N*4*-[7-(1-isopropyl-piperidin-4-yloxy)-quinazolin-2-yl] benzene-1,4-diamine] | –
5 to 10 | < 5 | – | Nc1cc(C(F)(F)F)c(-c2ccc3cnc(Nc4ccc(S(N)(=O)=O)cc4)nc3c2OC2CCNCC2)cn1 [Compound 69, 4-[7-(6-Amino-4-trifluoromethyl-pyridin-3-yl)-8-(piperidin-4-yloxy)-quinazolin-2-ylamino]-benzenesulfonamide] | –
< 5 | < 5 | – | CC(C)N1CCC(Oc2cccc3cnc(Nc4ccc(CC(N)=O)cc4)nc23)CC1 [Compound 74, 2-{4-[8-(1-Isopropyl-piperidin-4-yloxy)-quinazolin-2-ylamino]-phenyl}-acetamide] | –
< 5 | < 5 | – | CC(C)N1CCC(Oc2cccc3cnc(Nc4ccc(NC(=O)N5CCCC5)cc4)nc23)CC1 [Compound 75, Pyrrolidine-1-carboxylic acid {4-[8-(1-isopropyl-piperidin-4-yloxy)-quinazolin-2-ylamino]-phenyl}-amide] | –
< 5 | < 5 | – | CC(C)N1CCC(Oc2cccc3cnc(Nc4cccc(CC(N)=O)c4)nc23)CC1 [Compound 76, 2-{3-[8-(1-Isopropyl-piperidin-4-yloxy)-quinazolin-2-ylamino]-phenyl}-acetamide] | –
< 5 | < 5 | – | CNC(=O)Cc1cccc(NC(=O)Cc2cccc(Nc3ncc4cccc(OC5CCN(C(C)C)CC5)c4n3)c2)c1 [Compound 78, 2-{3-[8-(1-Isopropyl-piperidin-4-yloxy)-quinazolin-2-ylamino]-phenyl}-N-(3-methylcarbamoylmethyl-phenyl)-acetamide] | –
< 5 | < 5 | – | CC(C)NC(=O)Cc1cccc(Nc2ncc3cccc(OC4CCN(C(C)C)CC4)c3n2)c1 [Compound 79, N-Isopropyl-2-{3-[8-(1-isopropyl-piperidin-4-yloxy)-quinazolin-2-ylamino]-phenyl}-acetamide] | –
5 to 10 | < 5 | – | CC(C)N1CCC(Oc2cccc3cnc(Nc4cccc(N5CCOCC5)c4)nc23)CC1 [Compound 80, [8-(1-Isopropyl-piperidin-4-yloxy)-quinazolin-2-yl]-(3-morpholin-4-yl-phenyl)-amine] | –
< 5 | < 5 | – | CNS(=O)(=O)Cc1ccc(Nc2ncc3cccc(OC4CCN(C(C)C)CC4)c3n2)cc1 [Compound 82, C-{4-[8-(1-Isopropyl-piperidin-4-yloxy)-quinazolin-2-ylamino]-phenyl}-N-methyl-methanesulfonamide] | –
5 to 10 | < 5 | – | CC(C)N1CCC(Oc2cccc3cnc(Nc4ccc(F)cc4)nc23)CC1 [Compound 83, (4-Fluoro-phenyl)-[8-(1-isopropyl-piperidin-4-yloxy)-quinazolin-2-yl]-amine] | –
< 5 | < 5 | – | CC(C)N1CCC(Oc2cccc3cnc(Nc4ccc(Cl)cc4)nc23)CC1 [Compound 84] | –
– | – | < 5 | CC(=O)Nc1cccc(Nc2ncc3cccc(OC4CCN(C(C)C)CC4)c3n2)c1 [Compound 1007, N-(3-(8-(1-isopropylpiperidin-4-yloxy)quinazolin-2-ylamino)phenyl)acetamide] | –
– | – | < 5 | CNS(=O)(=O)Cc1ccc(Nc2ncc3cccc(OC4CCN(C(C)C)CC4)c3n2)cc1 [Compound 1008, 1-(4-(8-(1-isopropylpiperidin-4-yloxy)quinazolin-2-ylamino)phenyl)-N-methylmethanesulfonamide] | –
– | – | 5 to 10 | CC(C)N1CCC(Oc2cccc3cnc(Nc4ccc(F)cc4)nc23)CC1 [Compound 1009, N-(4-fluorophenyl)-8-(1-isopropylpiperidin-4-yloxy)quinazolin-2-amine] | –
– | – | < 5 | CC(C)N1CCC(Oc2cccc3cnc(Nc4ccc(Cl)cc4)nc23)CC1 [Compound 1010, N-(4-chlorophenyl)-8-(1-isopropylpiperidin-4-yloxy)quinazolin-2-amine] | –
– | – | < 5 | CC(C)N1CCC(Oc2cccc3cnc(Nc4ccc(C(F)(F)F)cc4)nc23)CC1 [Compound 1011, 8-(1-isopropylpiperidin-4-yloxy)-N-(4-(trifluoromethyl)phenyl)quinazolin-2-amine] | –
– | – | 5 to 10 | CC(C)N1CCC(Oc2ccc3cnc(Nc4ccc(N)c(Cl)c4)nc3c2)CC1 [Compound 1013, 3-chloro-N1-(7-(1-isopropylpiperidin-4-yloxy)quinazolin-2-yl)benzene-1,4-diamine] | –
– | – | < 5 | CC(=O)Nc1ccc(Nc2ncc3ccc(OC4CCNCC4)cc3n2)cc1C [Compound 1014, N-(2-methyl-4-(7-(piperidin-4-yloxy)quinazolin-2-ylamino)phenyl)acetamide] | –
– | – | < 5 | C#Cc1cc(OC2CCN(C(C)C)CC2)c2nc(Nc3ccc(S(N)(=O)=O)cc3)ncc2c1 [Compound 1015, 4-(6-ethynyl-8-(1-isopropylpiperidin-4-yloxy)quinazolin-2-ylamino)benzenesulfonamide] | –
